{"source": "patent US12238268B2", "about": "“Imaging systems and methods” (priority 2012, dated 2025)", "key": {"ABIR": {"molecular_target": "ABIR (Homo sapiens, UniProt P05106+P06756)", "sequence (P06756 31-889 limits assumed)": "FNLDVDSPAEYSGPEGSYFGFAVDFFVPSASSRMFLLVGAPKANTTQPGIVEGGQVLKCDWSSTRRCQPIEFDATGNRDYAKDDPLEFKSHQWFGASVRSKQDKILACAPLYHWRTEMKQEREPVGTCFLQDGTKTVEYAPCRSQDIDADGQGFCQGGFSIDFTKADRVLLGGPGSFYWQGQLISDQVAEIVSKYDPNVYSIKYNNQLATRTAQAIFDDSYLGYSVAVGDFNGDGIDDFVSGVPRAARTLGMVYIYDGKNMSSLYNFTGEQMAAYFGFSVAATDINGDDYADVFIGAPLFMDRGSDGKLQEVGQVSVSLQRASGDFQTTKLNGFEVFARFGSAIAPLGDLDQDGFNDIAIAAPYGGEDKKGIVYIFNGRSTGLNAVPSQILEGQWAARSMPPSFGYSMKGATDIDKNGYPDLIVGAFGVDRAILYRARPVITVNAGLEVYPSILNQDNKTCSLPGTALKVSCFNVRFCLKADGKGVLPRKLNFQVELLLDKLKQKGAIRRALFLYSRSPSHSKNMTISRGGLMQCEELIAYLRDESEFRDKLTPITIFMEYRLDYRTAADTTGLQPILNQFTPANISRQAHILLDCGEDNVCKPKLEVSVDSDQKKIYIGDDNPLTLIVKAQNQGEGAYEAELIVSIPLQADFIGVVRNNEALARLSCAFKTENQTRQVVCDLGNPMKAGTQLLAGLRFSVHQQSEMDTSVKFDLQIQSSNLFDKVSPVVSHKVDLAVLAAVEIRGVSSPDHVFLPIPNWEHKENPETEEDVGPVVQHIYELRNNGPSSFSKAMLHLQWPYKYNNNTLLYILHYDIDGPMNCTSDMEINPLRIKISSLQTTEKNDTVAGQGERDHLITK", "sequence (P06756 891-1048 partner limits assumed)": "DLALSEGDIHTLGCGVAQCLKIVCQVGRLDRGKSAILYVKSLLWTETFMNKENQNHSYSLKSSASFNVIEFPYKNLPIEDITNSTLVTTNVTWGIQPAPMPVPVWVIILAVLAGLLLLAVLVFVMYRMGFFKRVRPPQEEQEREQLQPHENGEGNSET", "sequence (P05106 27-788)": "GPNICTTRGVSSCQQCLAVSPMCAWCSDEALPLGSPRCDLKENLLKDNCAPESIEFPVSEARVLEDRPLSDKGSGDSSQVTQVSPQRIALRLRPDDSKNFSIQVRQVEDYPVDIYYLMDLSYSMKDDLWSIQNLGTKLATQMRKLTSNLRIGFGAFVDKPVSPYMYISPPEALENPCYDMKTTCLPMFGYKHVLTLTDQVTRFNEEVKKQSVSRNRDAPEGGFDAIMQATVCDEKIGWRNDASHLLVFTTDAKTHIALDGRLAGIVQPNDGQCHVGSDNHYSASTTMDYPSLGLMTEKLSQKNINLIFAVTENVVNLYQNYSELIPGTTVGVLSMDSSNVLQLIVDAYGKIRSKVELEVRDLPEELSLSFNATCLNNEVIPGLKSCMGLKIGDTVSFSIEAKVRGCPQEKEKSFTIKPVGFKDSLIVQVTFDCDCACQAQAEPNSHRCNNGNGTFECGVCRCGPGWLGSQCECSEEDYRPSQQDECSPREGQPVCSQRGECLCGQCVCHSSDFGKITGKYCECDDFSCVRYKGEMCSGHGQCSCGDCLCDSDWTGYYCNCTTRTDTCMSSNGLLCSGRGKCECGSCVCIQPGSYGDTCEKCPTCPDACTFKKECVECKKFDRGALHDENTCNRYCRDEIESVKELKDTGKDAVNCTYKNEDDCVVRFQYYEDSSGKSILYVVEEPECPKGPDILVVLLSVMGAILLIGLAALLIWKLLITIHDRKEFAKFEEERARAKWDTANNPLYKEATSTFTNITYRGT", "assay": "ABIR binding affinity", "settings": "relative to reference cypate-labeled RGD peptide", "excerpt": "(§1) An example of a tumor-targeted molecular probe is LS-301, which has the structure, Cypate-cyclo (D-Cys-Gly-Arg-Asp-Ser-Pro-Cys)-Lys-OH. The spectral properties of LS-301 are suitable for NIR imaging applications (e.g., excitation/emission 790/810 nm in 20% DMSO solution; fluorescence quantum yield (ψ) 0.1 referenced to ICG). […] In addition to conferring tumor selectivity on LS-301, the unnatural D-cysteine on the peptide moiety confers higher stability because of its resistance to degradation by proteases. This biological stability in serum allows initial imaging and potential follow-up surgery to be conducted within 48 hours before subsequent hydrolysis of the probe through L-amino acid residues."}, "[1]": {"assay": "Biological stability in serum", "format": "in vitro ADME", "settings": "hydrolysis through L-amino acid residues", "excerpt": "as §1"}, "liver tumors": {"test_system": "liver tumors", "assay": "Goggle-aided fluorescence imaging of liver tumors, mice", "format": "in vivo", "settings": "goggle device 102", "protocol": "(§2) In another example, a multimodal detection technique was implemented in which goggle-aided fluorescence imaging (e.g., using goggle device 102 (shown in FIG. 1) and indocyanine green dye) was combined with ultrasound imaging and standard histology. Specifically, fluorescence imaging was used to detect liver tumors in mice and to perform liver resections on the tumors. […] Further, liver resection was performed on a rabbit using ultrasound, fluorescence imaging, and standard histology. […] The excised tissues were later examined by histopathology, and it was confirmed that the tumors were cancerous."}, "tumors": {"test_system": "tumors", "assay": "Goggle-aided fluorescence imaging and liver resection, rabbit", "format": "in vivo", "settings": "fluorescence goggle system 100, confirmed by ultrasound and histopathology", "protocol": "as §2"}, "[2]": {"test_system": "hepatocellular carcinoma (HCC)", "assay": "Goggle-aided fluorescence imaging of hepatocellular carcinoma in patients", "format": "in vivo", "settings": "human patients", "excerpt": "In another example, goggle device 102 (shown in FIG. 1) and indocyanine green dye were used to image hepatocellular carcinoma (HCC) in human patients. Both intravenous and transarterial hepatic (TAH) delivery of indocyanine green dye were used. […] Histologic validation was used to confirm HCC in the patients."}}, "note": "Positions of bridges follow the written chain, without caps; N, C: chain ends. Non-standard residues stand in square brackets, D forms with d. Residues, ends and D or L forms follow the SMILES beside them. *: point of attachment. X1 = CC1(C)C(/C=C/C=C/C=C/C=C2/N(CCC(=O)*)c3ccc4ccccc4c3C2(C)C)=[N+](CCC(=O)[O-])c2ccc3ccccc3c21"}
{"smiles": "CC1(C)C(/C=C/C=C/C=C/C=C2/N(CCC(=O)N[C@@H]3CSSC[C@@H](C(=O)N[C@@H](CCCCN)C(=O)O)NC(=O)[C@@H]4CCCN4C(=O)[C@H](CO)NC(=O)[C@H](CC(=O)O)NC(=O)[C@H](CCCNC(=N)N)NC(=O)CNC3=O)c3ccc4ccccc4c3C2(C)C)=[N+](CCC(=O)[O-])c2ccc3ccccc3c21", "note": "[LS-301, Cypate-cyclo (D-Cys-Gly-Arg-Asp-Ser-Pro-Cys)-Lys-OH] (X1-[dC]GRDSPCK-OH; disulfide 1-7)", "values": [{"measurement": "Ki", "setting": "ABIR", "value": "26.2 ± 0.4", "unit": "nM"}, {"measurement": "biological stability in serum: time for imaging and follow-up surgery before hydrolysis of the probe", "setting": "[1]", "value": "≤ 48", "unit": "hours"}]}
{"smiles": "CC1(C)C(/C=C/C=C/C=C/C=C2\\N(CCCCS(=O)(=O)O)c3ccc4ccccc4c3C2(C)C)=[N+](CCCCS(=O)(=O)[O-])c2ccc3ccccc3c21", "note": "[indocyanine green dye, indocyanine green]", "values": [{"measurement": "detection of liver tumors by fluorescence imaging", "setting": "liver tumors", "value": "In addition to single tumors, scattered satellite lesions were also detected"}, {"measurement": "observation of tumors by fluorescence imaging", "setting": "tumors", "value": "observed in real-time"}, {"measurement": "HCC-to-liver fluorescence contrast, TAH delivery instead of intravenous delivery", "setting": "[2]; goggle device 102", "value": "significantly higher"}, {"measurement": "detection of HCC tumors by fluorescence imaging", "setting": "[2]; intravenous and transarterial hepatic (TAH) delivery", "value": "Primary tumors and satellite tumors were both detected"}]}
